From patent US10072026B2, “Crystalline form of 3-((1R,3s,5S)-3-((7-((5-methyl-1H-pyrazol-3-yl)amino)-1,6-naphthyridin-5-yl)amino)-8-azabicyclo[3.2.1]octan-8-yl)propanenitrile” (priority 2015, dated 2018)
Read-outs that look alike come from different tables or passages of the source.

What was measured:
[1] = system: IL-4 induced STAT6 phosphorylation in THP-1 human monocytic cells; test: Cellular JAK potency assay, THP-1
JAK1 = JAK1 (Homo sapiens (Human), UniProt P23458); test: LanthaScreen JAK biochemical assay (JAK1)
[2] = IL-4 induced STAT6 phosphorylation, THP-1 cells
[3] = Homo sapiens, THP-1, read-out: THP-1 IL4 pIC50 (converted)
[4] = read-out: JAK 1 (pKi) (converted)
[5] = THP-1 cells, IL-4 induced STAT6 phosphorylation

Chain of JAK1 (P23458 whole entry): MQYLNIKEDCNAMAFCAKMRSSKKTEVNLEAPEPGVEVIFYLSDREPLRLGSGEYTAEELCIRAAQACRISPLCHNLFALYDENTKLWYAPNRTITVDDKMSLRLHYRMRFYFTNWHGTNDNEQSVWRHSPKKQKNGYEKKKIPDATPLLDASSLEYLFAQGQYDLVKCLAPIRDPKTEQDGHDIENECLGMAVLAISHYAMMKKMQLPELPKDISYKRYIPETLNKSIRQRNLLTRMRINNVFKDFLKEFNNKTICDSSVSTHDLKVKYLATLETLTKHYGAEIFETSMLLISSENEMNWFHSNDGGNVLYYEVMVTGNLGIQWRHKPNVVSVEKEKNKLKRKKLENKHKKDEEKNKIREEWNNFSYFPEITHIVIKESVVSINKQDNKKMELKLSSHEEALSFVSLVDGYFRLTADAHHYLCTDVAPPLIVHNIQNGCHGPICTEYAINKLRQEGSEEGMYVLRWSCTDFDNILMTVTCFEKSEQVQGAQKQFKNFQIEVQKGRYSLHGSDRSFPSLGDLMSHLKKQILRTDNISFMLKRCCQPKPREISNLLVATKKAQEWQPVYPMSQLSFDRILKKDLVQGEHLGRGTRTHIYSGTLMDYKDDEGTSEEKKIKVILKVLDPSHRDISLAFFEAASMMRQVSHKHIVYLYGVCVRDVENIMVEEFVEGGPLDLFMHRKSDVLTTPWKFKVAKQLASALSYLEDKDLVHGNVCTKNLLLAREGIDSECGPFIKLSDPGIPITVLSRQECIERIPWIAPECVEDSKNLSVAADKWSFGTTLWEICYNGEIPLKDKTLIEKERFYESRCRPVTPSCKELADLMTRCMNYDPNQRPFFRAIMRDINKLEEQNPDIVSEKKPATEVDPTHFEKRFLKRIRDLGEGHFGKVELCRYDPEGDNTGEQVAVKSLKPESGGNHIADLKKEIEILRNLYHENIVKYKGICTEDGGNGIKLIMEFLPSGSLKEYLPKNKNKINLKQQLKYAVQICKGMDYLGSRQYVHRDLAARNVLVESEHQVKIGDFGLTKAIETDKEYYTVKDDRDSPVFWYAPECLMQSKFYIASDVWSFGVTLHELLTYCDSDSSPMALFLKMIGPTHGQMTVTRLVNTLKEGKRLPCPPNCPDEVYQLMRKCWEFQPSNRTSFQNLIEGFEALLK

COC(=O)CN1[C@@H]2CC[C@H]1C[C@H](Nc1nc(Nc3cc(C)[nH]n3)cc3ncccc13)C2 [Example 1-1]
THP-1 IL4 pIC50 [1, 2]: C (C represents a pEC50 value<6.7 (EC50>200 nM))

COC(=O)CCN1[C@@H]2CC[C@H]1C[C@H](Nc1nc(Nc3cc(C)[nH]n3)cc3ncccc13)C2 [Example 1-2]
THP-1 IL4 pIC50 [1, 2]: C (C represents a pEC50 value<6.7 (EC50>200 nM))

COC(=O)CCCN1[C@@H]2CC[C@H]1C[C@H](Nc1nc(Nc3cc(C)[nH]n3)cc3ncccc13)C2 [Example 1-3]
THP-1 IL4 pIC50 [1, 2]: C (C represents a pEC50 value<6.7 (EC50>200 nM))

Cc1cc(Nc2cc3ncccc3c(N[C@@H]3C[C@H]4CC[C@@H](C3)N4CCCF)n2)n[nH]1 [Example 1-9]
THP-1 IL4 pIC50 [1, 2]: C (C represents a pEC50 value<6.7 (EC50>200 nM)) | JAK 1 (pKi) (JAK1): B (B represents a pKi value between 9 and 10 (Ki between 1 nM and 0.1 nM))

Cc1cc(Nc2cc3ncccc3c(N[C@@H]3C[C@H]4CC[C@@H](C3)N4CC(=O)N[C@@H]3CCOC3=O)n2)n[nH]1 [Example 1-11]
THP-1 IL4 pIC50 [1, 2]: C (C represents a pEC50 value<6.7 (EC50>200 nM))

Cc1cc(Nc2cc3ncccc3c(N[C@@H]3C[C@H]4CC[C@@H](C3)N4CC(=O)N[C@H]3CCOC3=O)n2)n[nH]1 [Example 1-12]
THP-1 IL4 pIC50 [1, 2]: C (C represents a pEC50 value<6.7 (EC50>200 nM))

Cc1cc(Nc2cc3ncccc3c(N[C@@H]3C[C@H]4CC[C@@H](C3)N4CC(C)C)n2)n[nH]1 [Example 1-13]
THP-1 IL4 pIC50 [1, 2]: A (A represents a pEC50 value≥7.5 (EC50≤32 nM)) | JAK 1 (pKi) (JAK1): B (B represents a pKi value between 9 and 10 (Ki between 1 nM and 0.1 nM))

Cc1cc(Nc2cc3ncccc3c(N[C@@H]3C[C@H]4CC[C@@H](C3)N4Cc3ccc(O)cc3)n2)n[nH]1 [Example 1-18]
IC50 [1, 3]: > 200 nM | Ki (JAK1; [4]): 0.1 to 1 nM

Cc1cc(Nc2cc3ncccc3c(N[C@@H]3C[C@H]4CC[C@@H](C3)N4Cc3cccc(O)c3)n2)n[nH]1 [Example 1-19]
IC50 [1, 3]: 31.6 to 200 nM

Cc1cc(Nc2cc3ncccc3c(N[C@@H]3C[C@H]4CC[C@@H](C3)N4CC3CCC(=O)O3)n2)n[nH]1 (some centres unmarked) [Example 1-29]
THP-1 IL4 pIC50 [1, 2]: C (C represents a pEC50 value<6.7 (EC50>200 nM))

Cc1cc(Nc2cc3ncccc3c(N[C@@H]3C[C@H]4CC[C@@H](C3)N4CC3COC(=O)O3)n2)n[nH]1 (some centres unmarked) [Example 1-30]
IC50 [1, 3]: 31.6 to 200 nM

COC(=O)CCCN1[C@@H]2CCC[C@H]1C[C@H](Nc1nc(Nc3cc(C)[nH]n3)cc3ncccc13)C2 [Example 1-34]
THP-1 IL4 pIC50 [1, 2]: C (C represents a pEC50 value<6.7 (EC50>200 nM)) | JAK 1 (pKi) (JAK1): B (B represents a pKi value between 9 and 10 (Ki between 1 nM and 0.1 nM))

Cc1cc(Nc2cc3ncccc3c(N[C@@H]3C[C@H]4CCC[C@@H](C3)N4CC(=O)OC(C)C)n2)n[nH]1 [Example 1-35]
THP-1 IL4 pIC50 [1, 2]: A (A represents a pEC50 value≥7.5 (EC50≤32 nM))

Cc1cc(Nc2cc3ncccc3c(N[C@@H]3C[C@H]4CCC[C@@H](C3)N4CC(F)(F)F)n2)n[nH]1 [Example 1-45]
THP-1 IL4 pIC50 [1, 2]: B (B represents a pEC50 value between 6.7 and 7.5 (EC50 between 200 nM and 32 nM))

COCCCN1[C@@H]2CCC[C@H]1C[C@H](Nc1nc(Nc3cc(C)[nH]n3)cc3ncccc13)C2 [Example 1-46]
THP-1 IL4 pIC50 [1, 2]: B (B represents a pEC50 value between 6.7 and 7.5 (EC50 between 200 nM and 32 nM)) | JAK 1 (pKi) (JAK1): B (B represents a pKi value between 9 and 10 (Ki between 1 nM and 0.1 nM))

Cc1cc(Nc2cc3ncccc3c(N[C@@H]3C[C@H]4CCC[C@@H](C3)N4Cc3cccc(O)c3)n2)n[nH]1 [Example 1-49]
THP-1 IL4 pIC50 [1, 2]: A (A represents a pEC50 value≥7.5 (EC50≤32 nM))

Cc1cc(Nc2cc3ncccc3c(N[C@@H]3C[C@H]4CCC[C@@H](C3)N4[C@H]3CCOC3=O)n2)n[nH]1 [Example 1-51]
THP-1 IL4 pIC50 [1, 2]: B (B represents a pEC50 value between 6.7 and 7.5 (EC50 between 200 nM and 32 nM))

Cc1cc(Nc2cc3ncccc3c(N[C@@H]3C[C@H]4CCC[C@@H](C3)N4[C@@H]3CCOC3=O)n2)n[nH]1 [Example 1-52]
THP-1 IL4 pIC50 [1, 2]: B (B represents a pEC50 value between 6.7 and 7.5 (EC50 between 200 nM and 32 nM))

CCOCC(=O)N1[C@@H]2CC[C@H]1C[C@H](Nc1nc(Nc3cc(C)[nH]n3)cc3ncccc13)C2 [Example 2-4]
THP-1 IL4 pIC50 [1, 2]: C (C represents a pEC50 value<6.7 (EC50>200 nM))

COC(=O)C1(C(=O)N2[C@@H]3CC[C@H]2C[C@H](Nc2nc(Nc4cc(C)[nH]n4)cc4ncccc24)C3)CC1 [Example 2-9]
IC50 [1, 3]: > 200 nM

Cc1cc(Nc2cc3ncccc3c(N[C@@H]3C[C@H]4CC[C@@H](C3)N4C(=O)OCC(C)C)n2)n[nH]1 [Example 3-3]
THP-1 IL4 pIC50 [1, 2]: A (A represents a pEC50 value≥7.5 (EC50≤32 nM)) | JAK 1 (pKi) (JAK1): B (B represents a pKi value between 9 and 10 (Ki between 1 nM and 0.1 nM))

COCCOC(=O)N1[C@@H]2CC[C@H]1C[C@H](Nc1nc(Nc3cc(C)[nH]n3)cc3ncccc13)C2 [Example 3-5]
THP-1 IL4 pIC50 [1, 2]: B (B represents a pEC50 value between 6.7 and 7.5 (EC50 between 200 nM and 32 nM)) | JAK 1 (pKi) (JAK1): B (B represents a pKi value between 9 and 10 (Ki between 1 nM and 0.1 nM))

Cc1cc(Nc2cc3ncccc3c(N[C@@H]3C[C@H]4CC[C@@H](C3)N4S(=O)(=O)C3(C)CC3)n2)n[nH]1 [Example 4-8]
IC50 [1, 3]: < 31.6 nM | Ki (JAK1; [4]): […]

Cc1cc(Nc2cc3ncccc3c(N[C@@H]3C[C@H]4CC[C@@H](C3)N4S(=O)(=O)C3CN(CCC#N)C3)n2)n[nH]1 [Example 4-11]
IC50 [1, 3]: > 200 nM | Ki (JAK1; [4]): 0.1 to 1 nM

COCC1CCCN1S(=O)(=O)N1[C@@H]2CC[C@H]1C[C@H](Nc1nc(Nc3cc(C)[nH]n3)cc3ncccc13)C2 (some centres unmarked) [Example 4-12]
IC50 [1, 3]: 31.6 to 200 nM | Ki (JAK1): 0.1 to 1 nM

Cc1cc(Nc2cc3ncccc3c(N[C@@H]3C[C@H]4CC[C@@H](C3)N4S(=O)(=O)c3ccccn3)n2)n[nH]1 [Example 4-14]
IC50 [1, 3]: 31.6 to 200 nM

Cc1cc(Nc2cc3ncccc3c(N[C@@H]3C[C@H]4CCC[C@@H](C3)N4S(C)(=O)=O)n2)n[nH]1 [Example 4-16]
THP-1 IL4 pIC50 [1, 2]: A (A represents a pEC50 value≥7.5 (EC50≤32 nM))

C=CCS(=O)(=O)N1[C@@H]2CCC[C@H]1C[C@H](Nc1nc(Nc3cc(C)[nH]n3)cc3ncccc13)C2 [Example 4-22]
THP-1 IL4 pIC50 [1, 2]: A (A represents a pEC50 value≥7.5 (EC50≤32 nM))

COc1ccc2c(N[C@@H]3C[C@H]4CC[C@@H](C3)N4CCCF)nc(Nc3cc(C)[nH]n3)cc2n1 [Example 5-5]
THP-1 IL4 pIC50 [1, 2]: B (B represents a pEC50 value between 6.7 and 7.5 (EC50 between 200 nM and 32 nM)) | JAK 1 (pKi) (JAK1): B (B represents a pKi value between 9 and 10 (Ki between 1 nM and 0.1 nM))

Cc1cc(Nc2cc3nc(CN4CCOCC4)ccc3c(N[C@@H]3C[C@H]4CC[C@@H](C3)N4S(C)(=O)=O)n2)n[nH]1 [Example 5-15]
IC50 [1, 3]: 31.6 to 200 nM

COCCS(=O)(=O)N1[C@@H]2CCC[C@H]1C[C@H](Nc1nc(Nc3cc(C)[nH]n3)cc3nc(CN4CCOCC4)ccc13)C2 [Example 5-24]
THP-1 IL4 pIC50 [1, 2]: B (B represents a pEC50 value between 6.7 and 7.5 (EC50 between 200 nM and 32 nM))

C=CCOC(=O)N1[C@@H]2CCC[C@H]1C[C@H](Nc1nc(Nc3cc(C)[nH]n3)cc3nc(CN4CCOCC4)ccc13)C2 [Example 5-25]
THP-1 IL4 pIC50 [1, 2]: B (B represents a pEC50 value between 6.7 and 7.5 (EC50 between 200 nM and 32 nM))

Cc1cc(Nc2cc3nc(CN4CCOCC4)ccc3c(N[C@@H]3C[C@H]4CCC[C@@H](C3)N4S(=O)(=O)N3CCC3)n2)n[nH]1 [Example 5-28]
THP-1 IL4 pIC50 [1, 2]: B (B represents a pEC50 value between 6.7 and 7.5 (EC50 between 200 nM and 32 nM))

CCC1(S(=O)(=O)N2[C@@H]3CC[C@H]2C[C@H](Nc2nc(Nc4cc(C)[nH]n4)cc4nc(CN5CCC(F)(F)CC5)ccc24)C3)CC1 [Example 5-32]
IC50 [1, 3]: 31.6 to 200 nM

Cc1cc(Nc2cc3nc(CN4CCC(F)(F)CC4)ccc3c(N[C@@H]3C[C@H]4CC[C@@H](C3)N4CC(F)(F)F)n2)n[nH]1 [Example 5-33]
IC50 [1, 3]: 31.6 to 200 nM

Cc1cc(Nc2cc3nc(CN4CCN(C)CC4)ccc3c(N[C@@H]3C[C@H]4CC[C@@H](C3)N4CC(F)(F)F)n2)n[nH]1 [Example 5-35]
IC50 [1, 3]: < 31.6 nM

COC(=O)c1cnc2cc(Nc3cc(C)[nH]n3)nc(N[C@@H]3C[C@H]4CC[C@@H](C3)N4CCCF)c2c1 [Example 6-44]
THP-1 IL4 pIC50 [1, 5]: B (B represents a pEC50 value between 6.7 and 7.5 (EC50 between 200 nM and 32 nM))

Cc1cc(Nc2cc3ncc(S(C)(=O)=O)cc3c(N[C@@H]3C[C@H]4CC[C@@H](C3)N4CCCF)n2)n[nH]1 [Example 6-55]
THP-1 IL4 pIC50 [1, 5]: C (C represents a pEC50 value<6.7 (EC50>200 nM))

Cc1cc(Nc2cc3ncc(S(C)(=O)=O)cc3c(N[C@@H]3C[C@H]4CC[C@@H](C3)N4[C@@H]3CCOC3=O)n2)n[nH]1 [Example 6-57]
THP-1 IL4 pIC50 [1, 5]: C (C represents a pEC50 value<6.7 (EC50>200 nM))

Cc1cc(Nc2cc3ncc(S(C)(=O)=O)cc3c(N[C@@H]3C[C@H]4CC[C@@H](C3)N4[C@H]3CCOC3=O)n2)n[nH]1 [Example 6-58]
THP-1 IL4 pIC50 [1, 5]: C (C represents a pEC50 value<6.7 (EC50>200 nM))

COc1ccnc2cc(Nc3cc(C)[nH]n3)nc(N[C@@H]3C[C@H]4CC[C@@H](C3)N4C(=O)CN(C)C)c12 [Example 7-3]
THP-1 IL4 pIC50 [1, 5]: C (C represents a pEC50 value<6.7 (EC50>200 nM))

COc1ccnc2cc(Nc3cc(C)[nH]n3)nc(N[C@@H]3C[C@H]4CC[C@@H](C3)N4CCF)c12 [Example 7-7]
THP-1 IL4 pIC50 [1, 5]: B (B represents a pEC50 value between 6.7 and 7.5 (EC50 between 200 nM and 32 nM))
